Experimental data published in patent US5866511A, “Stabilized solutions of bromonitromethane and their use as biocides” (Great Lakes Chemical Corporation, priority 1997, dated 1999).
In brackets after ≈: the same amount, converted by molar mass. Like-named read-outs stand apart in the source and are kept apart here.

Experiments:
Anabeana = experiment: Inhibition of algal growth in Allens medium (MIC), Anabeana; type: cell-based
Description: (§1) Pure cultures of the algal genera Anabeana, Chlamydomonas, and Chlorella are used to inoculate Allens medium at pH 7.5 achieving a final concentration of 10^4 cells/ml. All tests are performed on pure cultures. Various concentrations of acidified BNM solution (for each pH across the pH range of 1.5 to 3.5) are added to the culture tubes. Positive controls are established by the omission of BNM.
(§2) The algal cultures are housed in a light box (400 ft. candles; light source--cool white fluorescent tubes; 16 h on/8 h off cycles; 22°-26° C.) for three weeks. The cultures are read weekly noting any turbidity and green coloration of the medium which would indicate a positive result. […] The minimum inhibitory concentration was determined, with representative results being shown below.

all the organisms = conditions: quoted from Clark et al.; attributed to volatility; cited from earlier work
Pseudomonas aeruginosa [1] = experiment: Inhibition of bacterial growth in contaminated paint (MIC); type: cell-based; conditions: for MIC: paint, 25° C., read-out: Minimum Inhibitory Concentration
Description: Water based paints are subject to microbial attack which could produce viscosity loss or offensive odors. Biocides are added to protect the paint from such degradation in the can. A paint sample was artificially contaminated with Pseudomonas aeruginosa, a bacterium which is frequently found in spoiled paint. […] The thermal treatment inactivates residual biocide present in the paint.
Acidified solutions of BNM (pH ranging from 1.5 to 3.5) are diluted with sterile water and added at various concentrations to the paint. Positive controls are established by the omission of BNM addition.
A sterile swab was dipped into the paint and samples are plated onto tryptone glucose extract agar (TGEA; Difco, Detroit, Mich.). Samples of contaminated paint are subsequently swabbed onto sterile TGEA after 1,2,3,7, and 14 days of incubation of 25° C. The plates are incubated for one week at 25° C. Any growth observed on the agar surface during the incubation period is noted. […] The minimum inhibitory concentration (MIC), defined as the lowest concentration of BNM which prevented bacterial growth in the paint, is determined for the inventive solutions.

Aspergillus niger = experiment: Inhibition of fungal growth in synthetic cooling water (MIC); type: cell-based, Aspergillus niger (ATCC 9642); conditions: for MIC: 168 h, read-out: Minimum Inhibitory Concentration
Description: Industrial water presents a favorable environment for fungal growth. Fungi can cause many problems in industrial systems including damage to cooling tower wood fill and decks by delignification. Synthetic water is prepared according to the following formula: 0.2 mM MgSO4, 1.2 mM CaCl2 and 1.0 mM NaHCO3. Cooling water presents a favorable environment for microbiological growth. Fungi can damage the cooling tower wood fill and decks by delignification. Synthetic cooling water (CW) is prepared according to the following formula: 0.2 mM MgSO4, 1.2 mM CaCl2, and 1.0 mM NaHCO. The pH is adjusted to either 6 or 8 with either H2 SO4 or NaOH. The resulting solution is then sterilized by passing through a 0.2 μm filter. Various concentrations of acidified BNM solution (pH ranging from 1.5 to 4.0) are added to aliquots of sterile synthetic water. A positive control is prepared by omitting the BNM.
Three day old cultures of Aspergillus niger (ATCC 9642) are harvested from the surface of potato dextrose agar (Difco, Detroit, Mich.) supplemented with tartaric acid. The samples are dosed with A. niger to achieve a concentration of 10^3 CFU/ml. These samples are incubated for one week at ambient temperature. The cultures are plated onto PDA in order to recover any surviving mold. These plates are incubated for three days at ambient temperature. […] The minimum inhibitory concentration (MIC), defined as the lowest concentration of BNM which prevented fungal growth on the PDA plates, is determined.

[2] = CO2 off-gassing during storage of solutions; type: physicochemical; conditions: stabilized (acidified) solutions, storage under standard conditions
Description: (§3) BNM (4.58 g, 91.4% assay) was dissolved in 100 mL of deionized water sample 1. A pH 2.37 solution was prepared by adding one drop of sulfuric acid to 100 mL DI water and then adding 4.60 g of the BNM sample 2. A pH 3.76 solution was prepared by adding one drop of 10% aq sodium hydrogen sulfate to 100 mL DI water and then adding 4.60 g of the BNM sample 3. A pH 7.91 solution was prepared by dissolving 4.60 g of the BNM in 100 mL of DI water. A total of 7.2 g of 16.4% NaOH was then added over six minutes to maintain the pH. That solution turned red, indicating the presence of the bromonitromethylate anion and was slowly becoming acidic before the initial bromide value was determined.
The solutions of the present invention provide the additional benefit of minimizing off-gassing of CO2 during storage of the solution.

Pseudomonas aeruginosa [3] = experiment: Inhibition of microbial growth in alkaline paper pulp (MIC, at least 90% decrease); type: cell-based, Pseudomonas aeruginosa (ATCC 27853); conditions: read-out: Minimum Inhibitory Concentration
Description: Microbial growth at various points in a paper making system could produce a slime layer which could drop onto the paper sheet causing product damage and machine downtime due to breaks. Biocides are added to keep the microbial growth in check throughout the system. A pulp slurry (1.25% dry basis) was prepared in sodium phosphate buffer (200 mM, pH 8). The slurry is sterilized by autoclaving at 121° C. for 20 min. Pseudomonas aeruginosa (ATCC 27853) is added to the sterile pulp slurries to achieve a final concentration of 10^6 cells/ml. This population is confirmed by serially diluting a sample in sterile phosphate buffer (0.3 mM) and plating onto tryptone glucose extract agar (TGEA; Difco, Detroit, Mich.). Bromonitromethane is added at various concentrations to the test cultures. Controls are established by omitting BNM from the test samples. Following a 3 and 24 hr. exposure period at ambient temperature, the resulting test suspensions are diluted and plated as previously described. All plates are enumerated following an incubation period of 24 hr. at 37° C. The minimum inhibitory concentration is defined as the lowest concentration which decreased the microbial population by at least 90% over the period tested.

[4] = Storage stability of aqueous BNM concentrates (bromide ion concentration by ion selective electrodes over 57 days; gas chromatography); type: physicochemical
Description: Determination of enhanced formulation stability for solutions of bromonitromethane.
A study was performed to determine if aqueous concentrates of BNM could be prepared with adequate storage stability to make the material useful as a biocide. […] Less acidified solutions had faster degradation rates.
as §3
Each solution was measured for bromide ion concentration using ion selective electrodes over the course of 57 days to determine the degree of hydrolysis.
An acidified solution of bromonitromethane (BNM) is prepared by adding one drop of sulfuric acid to 100 ml distilled water and then adding 4.60 g of BNM (91.4% assay). The solution is sampled for gas chromatography assay at the beginning and end of these studies to confirm the BNM concentration. Aqueous solutions of BNM were stable when acidified with mineral acids to acidic pHs. The material hydrolyzed at a very slow rate giving a half-life of over ten years.
In a similar manner, acidified bromonitromethane solutions having pHs of about 1.0, 1.5, 2.0, 2.5, 3.0, 3.5 and 4.0 are prepared.

Pseudomonas aeruginosa [5] = experiment: Inhibition of aerobic bacteria in borate buffer (MIC, at least 90% decrease); type: cell-based, Pseudomonas aeruginosa (ATCC 278853)
Description: Borate buffer (25 mM) is adjusted to either pH 7 or 8. The buffer was sterilized by passing through a 0.2 μm filter. Pseudomonas aeruginosa (ATCC 278853) is added to aliquots of the sterile buffer to achieve a final concentration of 10^6 cells/ml. This population is confirmed by serially diluting a sample in sterile phosphate buffer (0.3 mM) and plating onto tryptone glucose extract agar (TGEA; Difco, Detroit, Mich.). Acidified solutions of bromonitromethane are added at various concentrations to the test cultures. Solutions acidified with acids to pHs of between 1.5 and 3.5 are prepared and tested. Positive controls are established by omitting BNM from the test samples.
Following 3 and 24 hour exposure periods at ambient temperature, the resulting test suspensions are diluted and plated as previously described. All plates are enumerated following an incubation period of 24 hr. at 37° C. The minimum inhibitory concentration is defined as the lowest concentration which decreased the microbial population by at least 90% over the period tested.

Chlorella = experiment: Inhibition of algal growth in Allens medium (MIC), Chlorella; type: cell-based
Description: as §1, §2

[6] = system: Desulfovibrio desulfuricans; experiment: Inhibition of sulfate reducing bacterium in API broth (MIC); type: cell-based; conditions: for MIC: read-out: Minimum Inhibitory Concentration
Description: API broth (Difco, Detroit, Mich.) is inoculated with the sulfate reducing bacterium (SRB) Desulfovibrio desulfuricans (10^4 cells/ml). Stable, acidified solutions of bromonitromethane (pH ranging from 1.5 to 3.6) are added to provide bromonitromethane at various concentrations to the SRB cultures. A positive control is constructed in the same fashion […] BNM addition.
The cultures are housed in a GasPak® jar (Becton Dickinson Microbiology Systems, Cockeysville, Md.) under anaerobic conditions (4-10% CO2, <1% O2) at ambient temperature. Cultures are checked weekly for a period of three weeks for visible […] growth indicative of SRB's. […] The minimum inhibitory concentration (MIC), defined as the lowest concentration of BNM which prevented bacterial growth in the API broth tubes, is determined.

Chlamydomonas = experiment: Inhibition of algal growth in Allens medium (MIC), Chlamydomonas; type: cell-based
Description: as §1, §2

[7] = 504 h, Allens medium pH 7.5, three weeks, read-out: Minimum Inhibitory Concentration

O=[N+]([O-])CBr [Bromonitromethane, bromonitromethane]
MIC (Anabeana; [7]): 0.5 to 1 µg/mL (≈ 3.57 to 7.15 µM) | growth inhibition (in words) (Anabeana; acidified BNM solutions, Anabeana): effective for inhibiting the growth | inhibition of organisms (in words) (all the organisms): inhibited all the organisms . . . but gave inconsistent results | MIC (Pseudomonas aeruginosa [1]; 24 h, 1 day incubation): 2 to 5 µg/mL (≈ 14.3 to 35.7 µM) | MIC (Pseudomonas aeruginosa [1]; 48 h, 2 days incubation): 2 to 5 µg/mL (≈ 14.3 to 35.7 µM) | MIC (Pseudomonas aeruginosa [1]; 72 h, 3 days incubation): 2 to 5 µg/mL (≈ 14.3 to 35.7 µM) | MIC (Pseudomonas aeruginosa [1]; 168 h, 7 days incubation): 2 to 5 µg/mL (≈ 14.3 to 35.7 µM) | MIC (Pseudomonas aeruginosa [1]; 336 h, 14 days incubation): 2 to 5 µg/mL (≈ 14.3 to 35.7 µM) | growth inhibition (in words) (Pseudomonas aeruginosa [1]; acidified BNM solutions): effective for inhibiting the growth | MIC (Aspergillus niger; synthetic cooling water pH 6, one week): < 1 µg/mL | MIC (Aspergillus niger; synthetic cooling water pH 8, one week): 1 to 5 µg/mL (≈ 7.15 to 35.7 µM) | growth inhibition (in words) (Aspergillus niger; acidified BNM solutions): effective for inhibiting the growth | CO2 off-gassing vs non-stabilized solutions [2]: substantially reduce off-gassing (CO2) | MIC (Pseudomonas aeruginosa [3]; pulp slurry pH 8, 3 hr exposure): 1 to 5 µg/mL (≈ 7.15 to 35.7 µM) | MIC (Pseudomonas aeruginosa [3]; pulp slurry pH 8, 24 hr exposure): < 1 µg/mL | optimum pH for stability ([4]; acidified with strong acids): about 2.3 | degradation rate ([4]; most stable solution, acidified with H2SO4 to pH 2.3, 72000 min): 0.4 % BNM per 50 days | hydrolysis (in words) ([4]; non-acidified solutions): hydrolyze rapidly | MIC (Pseudomonas aeruginosa [5]; 3 h, pH 7, read-out: Minimum Inhibitory Concentration): 0.6 to 3.2 µg/mL (≈ 4.29 to 22.9 µM) | MIC (Pseudomonas aeruginosa [5]; borate buffer pH 7, 24 hour exposure, ≥90% decrease, read-out: Minimum Inhibitory Concentration): 0.3 to 0.6 µg/mL (≈ 2.14 to 4.29 µM) | MIC (Pseudomonas aeruginosa [5]; borate buffer pH 8, 3 hour exposure, ≥90% decrease, read-out: Minimum Inhibitory Concentration): 0.6 to 3.2 µg/mL (≈ 4.29 to 22.9 µM) | MIC (Pseudomonas aeruginosa [5]; borate buffer pH 8, 24 hour exposure, ≥90% decrease, read-out: Minimum Inhibitory Concentration): 0.3 to 0.6 µg/mL (≈ 2.14 to 4.29 µM) | MIC (Chlorella; [7]): 0.5 to 1 µg/mL (≈ 3.57 to 7.15 µM) | growth inhibition (in words) (Chlorella; acidified BNM solutions): effective for inhibiting the growth | MIC ([6]; 168 h): < 0.1 µg/mL | MIC ([6]; 336 h, API broth, anaerobic, pH = 2.37, 2 weeks): 0.1 to 0.5 µg/mL (≈ 0.715 to 3.57 µM) | MIC ([6]; 504 h, API broth, anaerobic, pH = 2.37, 3 weeks): 0.1 to 0.5 µg/mL (≈ 0.715 to 3.57 µM) | growth inhibition (in words) ([6]; acidified BNM solutions): effective for inhibiting the growth | MIC (Chlamydomonas; [7]): 0.1 to 0.5 µg/mL (≈ 0.715 to 3.57 µM) | growth inhibition (in words) (Chlamydomonas; acidified BNM solutions): effective for inhibiting the growth
